Laboratory results taken from ChEMBL document CHEMBL1201862, “PubChem BioAssay data set” (2004).
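Briefly, cells in 96-well plates were exposed to five compound concentrations for 48 h, and endpoints were estimated by linear interpolation. Abbreviation: GI50, concentration required for 50% inhibition of growth.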 Calls of active or inactive are those of the source. No stated cut-off is given here; in the data, active = GI50 up to about 1.1 µM and inactive = higher.

Tests used:
Test in all cases: DTP human tumour cell line panel, 48 h
DU-145 = system: DU-145
MDA-MB-435 = system: MDA-MB-435
OVCAR-3 = system: OVCAR-3
MDA-MB-231 = system: MDA-MB-231
CCRF-CEM = system: CCRF-CEM
NCI/ADR-RES = system: NCI/ADR-RES
OVCAR-4 = system: OVCAR-4
A549 = system: A549
NCI-H23 = system: NCI-H23
MDA-N = system: MDA-N
IGROV-1 = system: IGROV-1
U-251 = system: U-251
OVCAR-5 = system: OVCAR-5
SF-539 = system: SF-539
HCT-116 = system: HCT-116
NCI-H460 = system: NCI-H460
SR = system: SR
ACHN = system: ACHN
SK-MEL-2 = system: SK-MEL-2
KM12 = system: KM12
NCI-H522 = system: NCI-H522
RPMI-8226 = system: RPMI-8226
LOX IMVI = system: LOX IMVI
EKVX = system: EKVX
BT-549 = system: BT-549
Hs-578T = system: Hs-578T
HCT-15 = system: HCT-15
SF-295 = system: SF-295
TK-10 = system: TK-10
CAKI-1 = system: CAKI-1
SK-MEL-5 = system: SK-MEL-5
HT-29 = system: HT-29
NCI-H226 = system: NCI-H226
MCF7 = system: MCF7
SK-MEL-28 = system: SK-MEL-28
K562 = system: K562
PC-3 = system: PC-3
UACC-257 = system: UACC-257
Malme-3M = system: Malme-3M
HCC 2998 = system: HCC 2998
SF-268 = system: SF-268
SNB-19 = system: SNB-19
786-0 = system: 786-0
HL-60 = system: HL-60
MOLT-4 = system: MOLT-4
T47D = system: T47D
A498 = system: A498
COLO 205 = system: COLO 205
SW-620 = system: SW-620
OVCAR-8 = system: OVCAR-8
M14 = system: M14
SK-OV-3 = system: SK-OV-3
SN12C = system: SN12C
UACC-62 = system: UACC-62
HOP-62 = system: HOP-62
UO-31 = system: UO-31
SNB-75 = system: SNB-75
HOP-92 = system: HOP-92
RXF 393 = system: RXF 393

N#CC(=N)c1ncn(-c2ccccc2N)c1N
GI50 (DU-145): > 100 µM (inactive)
GI50 (MDA-MB-435): > 100 µM (inactive)
GI50 (OVCAR-3): > 100 µM (inactive)
GI50 (MDA-MB-231): > 100 µM (inactive)
GI50 (CCRF-CEM): > 100 µM (inactive)
GI50 (NCI/ADR-RES): > 100 µM (inactive)
GI50 (OVCAR-4): > 100 µM (inactive)
GI50 (A549): > 100 µM (inactive)
GI50 (NCI-H23): > 100 µM (inactive)
GI50 (MDA-N): > 100 µM (inactive)
GI50 (IGROV-1): > 100 µM (inactive)
GI50 (U-251): > 100 µM (inactive)
GI50 (OVCAR-5): > 100 µM (inactive)
GI50 (SF-539): > 100 µM (inactive)
GI50 (HCT-116): > 100 µM (inactive)
GI50 (NCI-H460): > 100 µM (inactive)
GI50 (SR): > 100 µM (inactive)
GI50 (ACHN): > 100 µM (inactive)
GI50 (SK-MEL-2): > 100 µM (inactive)
GI50 (KM12): > 100 µM (inactive)
GI50 (NCI-H522): > 100 µM (inactive)
GI50 (RPMI-8226): > 100 µM (inactive)
GI50 (LOX IMVI): > 100 µM (inactive)
GI50 (EKVX): > 100 µM (inactive)
GI50 (BT-549): > 100 µM (inactive)
GI50 (Hs-578T): > 100 µM (inactive)
GI50 (HCT-15): > 100 µM
GI50 (SF-295): > 100 µM (inactive)
GI50 (TK-10): > 100 µM (inactive)
GI50 (CAKI-1): > 100 µM (inactive)
GI50 (SK-MEL-5): > 100 µM (inactive)
GI50 (HT-29): > 100 µM (inactive)
GI50 (NCI-H226): > 100 µM (inactive)
GI50 (MCF7): > 100 µM (inactive)
GI50 (SK-MEL-28): > 100 µM (inactive)
GI50 (K562): > 100 µM (inactive)
GI50 (PC-3): > 100 µM (inactive)
GI50 (UACC-257): > 100 µM (inactive)
GI50 (Malme-3M): > 100 µM (inactive)
GI50 (HCC 2998): > 100 µM (inactive)
GI50 (SF-268): > 100 µM (inactive)
GI50 (SNB-19): > 100 µM (inactive)
GI50 (786-0): > 100 µM (inactive)
GI50 (HL-60): > 100 µM (inactive)
GI50 (MOLT-4): > 100 µM (inactive)
GI50 (T47D): > 100 µM (inactive)
GI50 (A498): > 100 µM (inactive)
GI50 (COLO 205): > 100 µM (inactive)
GI50 (SW-620): > 100 µM (inactive)
GI50 (OVCAR-8): > 100 µM (inactive)
GI50 (M14): > 100 µM (inactive)
GI50 (SK-OV-3): > 100 µM (inactive)
GI50 (SN12C): > 100 µM (inactive)
GI50 (UACC-62): > 100 µM (inactive)
GI50 (HOP-62): > 100 µM (inactive)
GI50 (UO-31): > 100 µM (inactive)
GI50 (SNB-75): > 100 µM (inactive)

COc1ccc(/C=C2\CN(C)CC3=C2OC(N)=C(C#N)C3c2ccc(OC)cc2)cc1 (centres undefined)
GI50 (DU-145): > 76.6 µM (inactive)
GI50 (MDA-MB-435): 17.7 µM (inactive)
GI50 (OVCAR-3): 21.6 µM (inactive)
GI50 (MDA-MB-231): 42.4 µM (inactive)
GI50 (CCRF-CEM): 7.57 µM (inactive)
GI50 (NCI/ADR-RES): 51.9 µM (inactive)
GI50 (OVCAR-4): 21.6 µM (inactive)
GI50 (A549): 23 µM (inactive)
GI50 (NCI-H23): > 68.2 µM (inactive)
GI50 (MDA-N): 21.8 µM (inactive)
GI50 (IGROV-1): 15.9 µM (inactive)
GI50 (U-251): 38 µM (inactive)
GI50 (OVCAR-5): > 100 µM (inactive)
GI50 (SF-539): > 100 µM (inactive)
GI50 (HCT-116): 24.3 µM (inactive)
GI50 (NCI-H460): 24.9 µM (inactive)
GI50 (SR): 15.2 µM (inactive)
GI50 (ACHN): 29.6 µM (inactive)
GI50 (SK-MEL-2): > 45.9 µM (inactive)
GI50 (KM12): > 56.5 µM (inactive)
GI50 (NCI-H522): 14.5 µM (inactive)
GI50 (HOP-92): 4.66 µM (inactive)
GI50 (RPMI-8226): 9.82 µM (inactive)
GI50 (LOX IMVI): 42.7 µM (inactive)
GI50 (EKVX): 43.4 µM (inactive)
GI50 (BT-549): > 100 µM (inactive)
GI50 (Hs-578T): 88.1 µM (inactive)
GI50 (HCT-15): 55.6 µM
GI50 (SF-295): 57.5 µM (inactive)
GI50 (TK-10): > 84.5 µM (inactive)
GI50 (CAKI-1): 69.7 µM (inactive)
GI50 (SK-MEL-5): > 62.1 µM (inactive)
GI50 (HT-29): > 56.8 µM (inactive)
GI50 (NCI-H226): > 100 µM (inactive)
GI50 (MCF7): 19.5 µM (inactive)
GI50 (SK-MEL-28): > 100 µM (inactive)
GI50 (K562): 33.6 µM (inactive)
GI50 (PC-3): > 25.8 µM (inactive)
GI50 (UACC-257): 50.5 µM (inactive)
GI50 (RXF 393): 20.7 µM (inactive)
GI50 (Malme-3M): 14.3 µM (inactive)
GI50 (HCC 2998): 23.8 µM (inactive)
GI50 (SF-268): 48.6 µM (inactive)
GI50 (SNB-19): > 86.7 µM (inactive)
GI50 (786-0): 30.5 µM (inactive)
GI50 (MOLT-4): 5.81 µM (inactive)
GI50 (T47D): 13.6 µM (inactive)
GI50 (A498): 35.4 µM (inactive)
GI50 (COLO 205): > 52.1 µM (inactive)
GI50 (SW-620): > 94.2 µM (inactive)
GI50 (OVCAR-8): 19.9 µM (inactive)
GI50 (M14): 97.1 µM (inactive)
GI50 (SK-OV-3): 5.64 µM (inactive)
GI50 (SN12C): 35.4 µM (inactive)
GI50 (UACC-62): > 100 µM (inactive)
GI50 (HOP-62): > 77.4 µM (inactive)
GI50 (UO-31): > 50.5 µM (inactive)
